Read-outs that look alike come from different tables or passages of the source.
How the values were obtained:
KP1004 KPC-2 [1] = assay: Biapenem potentiation (MPC@1), strain KP1004 KPC-2; type: cell-based; details: minimum BLI concentration inhibiting growth with biapenem 1 μg/mL; tested up to 40 μg/mL
Description: (§1) Biapenem was present in the test medium at 1 μg/mL. […] Table 3 summarizes the BLI potency of biapenem potentiation (MPC@1) for two strains overexpressing class A (KPC) and class D (OXA-48) carbapenemases. Biapenem MIC for each strain is also shown.

KP1086 OXA-48 = assay: Biapenem potentiation (MPC@1), strain KP1086 OXA-48; type: cell-based; details: minimum BLI concentration inhibiting growth with biapenem 1 μg/mL; tested up to 40 μg/mL
Description: as §1

AB1053 OXA-72 = assay: Meropenem potentiation (MPC@8), strain AB1053 OXA-72; type: cell-based, Acinetobacter baumannii; details: minimum BLI concentration inhibiting growth with meropenem 8 μg/mL; tested up to 20 μg/mL
AB1054 OXA-23 = assay: Meropenem potentiation (MPC@8), strain AB1054 OXA-23; type: cell-based, Acinetobacter baumannii; details: minimum BLI concentration inhibiting growth with meropenem 8 μg/mL; tested up to 20 μg/mL
[2] = biological target: T1, purified class A, C and D enzymes (β-lactamases) (Acinetobacter baumannii, UniProt Q9L4P2); assay: biochemical; type: biochemical; details: purified OXA-23; nitrocefin (NCF) as reporter substrate
T1 construct: rows headed: Ki (OXA-23, NCF), uM; other: purified OXA-23; nitrocefin (NCF) as reporter substrate

[3] = biological target: purified class A, C and D enzymes (β-lactamases) (Enterobacter cloacae, UniProt P05364); assay: biochemical; type: biochemical
[4] = biological target: purified class A, C and D enzymes (β-lactamases) (Escherichia coli, UniProt Q9L5C7); assay: biochemical; type: biochemical; details: purified CTX-M-14; nitrocefin (NCF) as reporter substrate
[5] = biological target: purified class A, C and D enzymes (β-lactamases) (Klebsiella pneumoniae, UniProt Q6XEC0); assay: biochemical; type: biochemical; details: purified OXA-48; nitrocefin (NCF) as reporter substrate
[6] = biological target: purified class A, C and D enzymes (β-lactamases) (Klebsiella pneumoniae, UniProt Q9F663); assay: biochemical; type: biochemical; details: purified KPC-2; nitrocefin (NCF) as reporter substrate
[7] = biological target: T2, purified class A, C and D enzymes (β-lactamases) (Pseudomonas aeruginosa, UniProt P24735); assay: biochemical; type: biochemical
T2 construct: rows headed: Ki (Pa-AmpC, NCF), uM; other: purified Pa-AmpC; nitrocefin (NCF) as reporter substrate

ECL1002 = assay: Aztreonam potentiation (MPC@4), strain ECL1002; details: minimum BLI concentration inhibiting growth with aztreonam 4 μg/mL; tested up to 40 μg/mL
ec308 SHV-5 = assay: Aztreonam potentiation (MPC@4), strain ec308 SHV-5; details: minimum BLI concentration inhibiting growth with aztreonam 4 μg/mL; tested up to 40 μg/mL
ec302 TEM-10 = assay: Aztreonam potentiation (MPC@4), strain ec302 TEM-10; details: minimum BLI concentration inhibiting growth with aztreonam 4 μg/mL; tested up to 40 μg/mL
KP1004 KPC-2 [8] = assay: Aztreonam potentiation (MPC@4), strain KP1004 KPC-2; details: minimum BLI concentration inhibiting growth with aztreonam 4 μg/mL; tested up to 40 μg/mL
EC1010 CMY-6 = assay: Aztreonam potentiation (MPC@4), strain EC1010 CMY-6; details: minimum BLI concentration inhibiting growth with aztreonam 4 μg/mL; tested up to 40 μg/mL
KP1010 SHV-12 = assay: Aztreonam potentiation (MPC@4), strain KP1010 SHV-12; details: minimum BLI concentration inhibiting growth with aztreonam 4 μg/mL; tested up to 40 μg/mL
KP1009 CTX-M-15 = assay: Aztreonam potentiation (MPC@4), strain KP1009 CTX-M-15; details: minimum BLI concentration inhibiting growth with aztreonam 4 μg/mL; tested up to 40 μg/mL
KP1005 CTX-M-14 = assay: Tigemonam potentiation (MPC@4), strain KP1005 CTX-M-14; details: minimum BLI concentration inhibiting growth with tigemonam 4 μg/mL; tested up to 40 μg/mL

T2 sequence (P24735 whole entry): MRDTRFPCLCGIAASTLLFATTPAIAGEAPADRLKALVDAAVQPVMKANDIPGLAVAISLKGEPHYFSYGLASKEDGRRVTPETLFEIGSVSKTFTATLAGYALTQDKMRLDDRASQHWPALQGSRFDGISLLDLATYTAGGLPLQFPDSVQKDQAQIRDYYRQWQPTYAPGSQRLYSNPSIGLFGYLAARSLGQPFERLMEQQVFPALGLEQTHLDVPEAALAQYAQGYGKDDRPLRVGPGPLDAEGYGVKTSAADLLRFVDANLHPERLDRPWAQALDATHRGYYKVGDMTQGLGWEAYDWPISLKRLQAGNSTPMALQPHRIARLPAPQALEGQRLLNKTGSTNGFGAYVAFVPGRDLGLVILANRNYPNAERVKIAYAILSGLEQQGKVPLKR
T1 sequence (Q9L4P2 whole entry): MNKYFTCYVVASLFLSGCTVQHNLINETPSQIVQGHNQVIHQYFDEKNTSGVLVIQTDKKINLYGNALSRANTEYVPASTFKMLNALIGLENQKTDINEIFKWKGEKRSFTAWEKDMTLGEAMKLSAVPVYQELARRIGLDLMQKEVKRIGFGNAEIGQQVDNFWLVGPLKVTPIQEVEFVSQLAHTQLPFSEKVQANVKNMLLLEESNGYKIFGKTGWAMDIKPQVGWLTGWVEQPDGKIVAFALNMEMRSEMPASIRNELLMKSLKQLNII
Chain of purified class A, C and D enzymes (β-lactamases) (Escherichia coli, UniProt Q9L5C7) (Q9L5C7 entry or part of it): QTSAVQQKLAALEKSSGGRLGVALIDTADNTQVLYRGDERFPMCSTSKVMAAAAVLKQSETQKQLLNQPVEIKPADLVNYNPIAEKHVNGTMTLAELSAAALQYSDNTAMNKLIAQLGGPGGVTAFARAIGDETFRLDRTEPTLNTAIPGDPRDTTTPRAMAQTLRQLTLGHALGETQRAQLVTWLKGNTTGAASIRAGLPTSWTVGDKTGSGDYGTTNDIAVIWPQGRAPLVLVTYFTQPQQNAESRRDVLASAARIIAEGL
Chain of purified class A, C and D enzymes (β-lactamases) (Enterobacter cloacae, UniProt P05364) (P05364 21-381): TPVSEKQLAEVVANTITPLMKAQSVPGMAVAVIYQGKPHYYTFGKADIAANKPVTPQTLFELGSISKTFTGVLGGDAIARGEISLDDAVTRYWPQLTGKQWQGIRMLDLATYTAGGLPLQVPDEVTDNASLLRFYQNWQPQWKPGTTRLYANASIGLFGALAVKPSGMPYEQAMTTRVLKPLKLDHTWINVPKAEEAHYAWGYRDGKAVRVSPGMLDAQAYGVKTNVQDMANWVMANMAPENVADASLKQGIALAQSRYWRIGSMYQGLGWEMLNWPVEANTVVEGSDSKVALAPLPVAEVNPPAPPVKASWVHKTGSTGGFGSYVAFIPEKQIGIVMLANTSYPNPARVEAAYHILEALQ

Compound	BPM MPC1 KP1004 KPC-2 (KP1004 KPC-2 [1])	BPM MPC1 OXA-48 KP1086 (KP1086 OXA-48)	MPM MPC8 AB1053 OXA-72 (AB1053 OXA-72)	MPM MPC8 AB1054 OXA-23 (AB1054 OXA-23)	Ki [2] [µM]	Ki (P99, NCF), uM [3]	Ki (CTX-M-14, NCF), uM [4]	Ki (OXA-48, NCF), uM [5]	Ki (KPC-2, NCF), uM [6]	Ki [7] [µM]	AZT MPC4 ECL1002 (ECL1002)	AZT MPC4 SHV-5 ec308 (ec308 SHV-5)	AZT MPC4 TEM-10 ec302 (ec302 TEM-10)	AZT MPC4 KPC-2 KP1004 (KP1004 KPC-2 [8])	AZT MPC4 CMY-6 EC1010 (EC1010 CMY-6)	AZT MPC4 SHV-12 KP1010 (KP1010 SHV-12)	AZT MPC4 CTX-M-15 KP1009 (KP1009 CTX-M-15)	TIG MPC4 CTX-M-14 KP1005 (KP1005 CTX-M-14)	Ki (P99, NCF), uM ([3]; purified P99, nitrocefin (NCF) as reporter substrate)	Ki ([7]; purified Pa-AmpC, nitrocefin (NCF) as reporter substrate, read-out: Ki (Pa-AmpC, NCF)) [µM]
O=C([O-])c1c(OCC2CC2)ccc2c1O[B-](O)(O)CC2.[Na+].[Na+] [Compound 45, Disodium; 8-(cyclopropylmethoxy)-4,4-dihydroxy-5-oxa-4-boranuidabicyclo[4.4.0]deca-1(6),7,9-triene-7-carboxylate]	X (X = MPC@1 ≤ 5 μg/mL)	X (X = MPC@1 ≤ 5 μg/mL)	X (X = MPC@1 ≤ 5 μg/mL)	X (X = MPC@1 ≤ 5 μg/mL)	< 0.1	X (key: X = Ki ≤ 0.1 μM; Y = 0.1 μM < Ki ≤ 1 μM; Z = Ki > 1 μM)	X (X = Ki ≤ 0.1 μM)	X (X = Ki ≤ 0.1 μM)	X (X = Ki ≤ 0.1 μM)	< 0.1	Y (Y = 5 μg/mL < MPC@4 ≤ 20 μg/mL)	Y (Y = 5 μg/mL < MPC@4 ≤ 20 μg/mL)	Y (Y = 5 μg/mL < MPC@4 ≤ 20 μg/mL)	X (X = MPC@4 ≤ 5 μg/mL)	X (X = MPC@4 ≤ 5 μg/mL)	X (X = MPC@4 ≤ 5 μg/mL)	Z (Z = MPC@4 > 20 μg/mL)	Z (Z = MPC@4 > 20 μg/mL)		
NC(=O)COc1ccc2c(c1C(=O)O)OB(O)CC2 [Compound 46, 7-(2-Amino-2-oxo-ethoxy)-2-hydroxy-3,4-dihydro-1,2-benzoxaborinine-8-carboxylic acid]	X (X = MPC@1 ≤ 5 μg/mL)	Y (Y = 5 μg/mL < MPC@1 ≤ 20 μg/mL)	X (X = MPC@1 ≤ 5 μg/mL)	Y (Y = 5 μg/mL < MPC@1 ≤ 20 μg/mL)	< 0.1		X (X = Ki ≤ 0.1 μM)	X (X = Ki ≤ 0.1 μM)	X (X = Ki ≤ 0.1 μM)		X (X = MPC@4 ≤ 5 μg/mL)	X (X = MPC@4 ≤ 5 μg/mL)	X (X = MPC@4 ≤ 5 μg/mL)	X (X = MPC@4 ≤ 5 μg/mL)	X (X = MPC@4 ≤ 5 μg/mL)	X (X = MPC@4 ≤ 5 μg/mL)	X (X = MPC@4 ≤ 5 μg/mL)	Z (Z = MPC@4 > 20 μg/mL)	X (X = Ki ≤ 0.1 μM)	< 0.1
CN(C)CCOc1ccc2c(c1C(=O)[O-])O[B-](O)(O)CC2.[Na+].[Na+] [Compound 48, Disodium; 8-[2-(dimethylamino)ethoxy]-4,4-dihydroxy-5-oxa-4-boranuidabicyclo[4.4.0]deca-1(6),7,9-triene-7-carboxylate]	X (X = MPC@1 ≤ 5 μg/mL)	X (X = MPC@1 ≤ 5 μg/mL)	X (X = MPC@1 ≤ 5 μg/mL)	Y (Y = 5 μg/mL < MPC@1 ≤ 20 μg/mL)	< 0.1	Y (key: X = Ki ≤ 0.1 μM; Y = 0.1 μM < Ki ≤ 1 μM; Z = Ki > 1 μM)	X (X = Ki ≤ 0.1 μM)	X (X = Ki ≤ 0.1 μM)	X (X = Ki ≤ 0.1 μM)	0.1 to 1	Y (Y = 5 μg/mL < MPC@4 ≤ 20 μg/mL)	Y (Y = 5 μg/mL < MPC@4 ≤ 20 μg/mL)	Y (Y = 5 μg/mL < MPC@4 ≤ 20 μg/mL)	X (X = MPC@4 ≤ 5 μg/mL)	X (X = MPC@4 ≤ 5 μg/mL)	X (X = MPC@4 ≤ 5 μg/mL)	Y (Y = 5 μg/mL < MPC@4 ≤ 20 μg/mL)	Z (Z = MPC@4 > 20 μg/mL)		
O=C([O-])c1c(CO)ccc2c1O[B-](O)(O)CC2.[Na+].[Na+] [Compound 49, Disodium; 4,4-dihydroxy-8-(hydroxymethyl)-5-oxa-4-boranuidabicyclo[4.4.0]deca-1(6),7,9-triene-7-carboxylate]	X (X = MPC@1 ≤ 5 μg/mL)	X (X = MPC@1 ≤ 5 μg/mL)	Y (Y = 5 μg/mL < MPC@1 ≤ 20 μg/mL)	Y (Y = 5 μg/mL < MPC@1 ≤ 20 μg/mL)	< 0.1	X (key: X = Ki ≤ 0.1 μM; Y = 0.1 μM < Ki ≤ 1 μM; Z = Ki > 1 μM)	X (X = Ki ≤ 0.1 μM)	X (X = Ki ≤ 0.1 μM)	X (X = Ki ≤ 0.1 μM)	< 0.1	X (X = MPC@4 ≤ 5 μg/mL)	X (X = MPC@4 ≤ 5 μg/mL)	X (X = MPC@4 ≤ 5 μg/mL)	X (X = MPC@4 ≤ 5 μg/mL)	X (X = MPC@4 ≤ 5 μg/mL)	X (X = MPC@4 ≤ 5 μg/mL)	X (X = MPC@4 ≤ 5 μg/mL)	X (X = MPC@4 ≤ 5 μg/mL)		
O=C([O-])c1c(C(F)F)ccc2c1O[B-](O)(O)CC2.[Na+].[Na+] [Compound 50, Disodium; 8-(difluoromethyl)-4,4-dihydroxy-5-oxa-4-boranuidabicyclo[4.4.0]deca-1(6),7,9-triene-7-carboxylate]	X (X = MPC@1 ≤ 5 μg/mL)	X (X = MPC@1 ≤ 5 μg/mL)	Y (Y = 5 μg/mL < MPC@1 ≤ 20 μg/mL)	Y (Y = 5 μg/mL < MPC@1 ≤ 20 μg/mL)	< 0.1	X (key: X = Ki ≤ 0.1 μM; Y = 0.1 μM < Ki ≤ 1 μM; Z = Ki > 1 μM)	X (X = Ki ≤ 0.1 μM)	X (X = Ki ≤ 0.1 μM)	X (X = Ki ≤ 0.1 μM)	< 0.1	X (X = MPC@4 ≤ 5 μg/mL)	X (X = MPC@4 ≤ 5 μg/mL)	X (X = MPC@4 ≤ 5 μg/mL)	X (X = MPC@4 ≤ 5 μg/mL)	X (X = MPC@4 ≤ 5 μg/mL)	X (X = MPC@4 ≤ 5 μg/mL)	X (X = MPC@4 ≤ 5 μg/mL)	X (X = MPC@4 ≤ 5 μg/mL)		
CS(=O)(=O)Nc1ccc2c(c1C(=O)[O-])O[B-](O)(O)CC2.[Na+].[Na+] [Compound 51, Disodium; 4,4-dihydroxy-8-(methanesulfonamido)-5-oxa-4-boranuidabicyclo[4.4.0]deca-1(6),7,9-triene-7-carboxylate]	X (X = MPC@1 ≤ 5 μg/mL)	X (X = MPC@1 ≤ 5 μg/mL)	Z (Z = MPC@1 > 20 μg/mL)	Z (Z = MPC@1 > 20 μg/mL)	< 0.1	X (key: X = Ki ≤ 0.1 μM; Y = 0.1 μM < Ki ≤ 1 μM; Z = Ki > 1 μM)	X (X = Ki ≤ 0.1 μM)	X (X = Ki ≤ 0.1 μM)	X (X = Ki ≤ 0.1 μM)	< 0.1	Z (Z = MPC@4 > 20 μg/mL)	X (X = MPC@4 ≤ 5 μg/mL)	X (X = MPC@4 ≤ 5 μg/mL)	Y (Y = 5 μg/mL < MPC@4 ≤ 20 μg/mL)	Y (Y = 5 μg/mL < MPC@4 ≤ 20 μg/mL)	X (X = MPC@4 ≤ 5 μg/mL)	Y (Y = 5 μg/mL < MPC@4 ≤ 20 μg/mL)	Z (Z = MPC@4 > 20 μg/mL)		

From patent US10618918B2, “Substituted boronic acids as antimicrobials” (priority 2015, dated 2020)
